# Measurements taken from patent US20190336484A1, “IL-8 INHIBITORS FOR USE IN THE TREATMENT OF SOME UROLOGICAL DISORDERS” (DOMPÉ FARMACEUTICI S.P.A., priority 2017, published 2019).
# Assays:
# CXCR1/CXCR2 = settings: Bertini R. et al, Br J Pharmacol 2012; cited from earlier work
# pharmacokinetic profile = settings: in vivo
# Description: In fact, as it will be illustrated in the Experimental section, Compd.
# [1] = system: experimental autoimmune chronic prostatitis (EACP); experiment: Experimental autoimmune chronic prostatitis (EACP), mechanical allodynia by Von Frey test; assay type: in vivo, Lewis male rats; settings: 20 mg/kg oral twice daily
# Description: The experimental autoimmune chronic prostatitis (EACP) can be easily generated in rats by specific immunization with syngeneic rat prostate homogenate. As a consequence of the strong inflammatory reaction, pelvic pain is generated, as already described (Zhang et al, Scand J Immunol 2011, 73:546-553; Zhang et al, Prostate 2012, 72:90-99; Wang et al, Int Urol Nephrol 2015, 47:307-316; Rudick et al, Am J Physiol Regul Integr Comp Physiol 2008, 294:R1268-1275).
# A total of 36 Lewis male rats (250-270 g) from Charles River Italy were used for the study, according to the regulations of the Animal Ethics Committee (IACUC n.631). The rats were maintained under standard laboratory conditions at 12:12 light/dark cycle with free access to food pellets and tap water.
# Each animal was initially immunized with 2 mg of syngeneic prostate protein, diluted in saline, emulsified with complete Freund adjuvant containing 2 mg/ml of H37a mycobacterium (BD). Emulsion was produced by vortexing the mix for 15 min or till obtaining appropriate viscosity. A total volume of 0.2 mL in two sites was injected into each anesthetized rat at the dorsal tail base. A booster immunization was then repeated 13 days after the first injection. […]
# Effect of pelvic pain was evaluated 16 and 26 days after immunization by testing mechanical allodynia with Von Frey test. […]
# [2] = system: testosterone-induced prostate hypertrophy (TBPH); experiment: Testosterone-induced prostate hypertrophy (TBPH), cystometry / urodynamic parameters; assay type: in vivo, Sprague-Dawley male rats; settings: 20 mg/kg oral twice daily, 5 days a week, 4 weeks
# Description: The study was undertaken to test the effects of chronic oral administration of Compound 1 in rats with dysfunctional bladders in an experimental model of TBPH involving an estrogen-associated inflammation (Tatemichi et al, J Urol 2006, 176:1236-1241).
# A total 26 Sprague-Dawley male rats (250-270 g) were used for the study, according to the regulations of the Animal Ethics Committee (IACUC n.631). The rats were maintained under standard laboratory conditions at 12:12 light/dark cycle with free access to food pellets and tap water.
# BPH was induced treating animals once a week for 4 weeks with intramuscular hormones corresponding to testosterone enanthate (Geymonat, 12.5 mg)+17β-estradiol-velerate (SIGMA, 0.125 mg) in sesame oil. […]
# The conscious rats were placed in metabolic cages without restraint and the bladder catheters were connected via a T-tube to a pressure transducer (P23 DC; Statham Instruments Inc., Oxnard, Calif., USA) and a microinjection pump (CMA 100; Carnegie Medicine Aft Solna, Sweden). Micturition volumes were recorded with a fluid collector connected to a force displacement transducer (FT 03 D, Grass Instrument Co., Quincy, Mass., USA). […] Pressures and micturition volumes were recorded continuously with Acq Knowledge 3.8.1 software and a MP100 data acquisition system (Biopac Syst. Inc. Santa Barbara, Calif.) connected to a Grass polygraph (Model 7E, Grass Instrument Co).
# RWPE-1 cells = experiment: in vitro inflammatory model of prostatitis: ROS/RNS production (DCFH-DA assay) in RWPE-1 cells exposed to conditioned medium from activated U-937; assay type: cell-based, human; settings: then CM from activated U-937, measured after 3 hours
# Description: Characterization of Compound 1 on an in vitro inflammatory model of prostatitis.
# In the aim of characterizing the Compound 1 on an in vitro inflammatory prostatitis model, human prostatic normal cells RWPE-1 (ATCC, lot number 61840713) are put in communication with activated macrophages; thus it induces an inflammatory micro-environment that enhances the production of reactive oxygen and nitrogen species (Debelec-Butuner et al, Mol. Carcinogen. 2014, 53:85-97).
# Human U-937 monocytes (ATCC, lot number 61795631) seeded at 50.000 cells/ml were differentiated with phorbol acetate ([…]) for 16 h. In order to stimulate cytokines production, lipopolysaccharide (LPS) was added (10 ng/ml for 24 h) and the conditioned medium (CM) collected.
# After 24 h in culture, RWPE-1 cells were treated with Compound 1 (0.1, 1 and 10 μM) and then exposed to CM from activated U-937. After 3 hours, reactive oxygen species (ROS) and Reactive Nitrogen species (RNS) were quantitatively measured by means of 2′,7′-dichlorodihydrofluorescein diacetate (DCFH-DA) assay. […] DCF is a highly fluorescent compound which can be detected by fluorescence spectroscopy with maximum excitation and emission spectra of 495 nm and 529 nm respectively (Games et al, J. Biochem. Biophys. Methods 2005, 65:45-80).
SMILES,CXCR1/CXCR2 inhibitor character (CXCR1/CXCR2),absorption (plasma) (pharmacokinetic profile),"mechanical hypersensitivity and allodynia (abdomen/pelvic withdrawal threshold, Von Frey) ([1]; day 16 and 26 after immunization, compared to vehicle)","applied force eliciting response in Von Frey test, fold higher ([1]; vehicle group stimulated by 19 g, FIG. 3)",post void residual volume (PVR) ([2]; FIG. 4),"area under pressure/time curve (AUC, detrusor over activity) ([2]; FIG. 5)",total ROS and RNS production induced by conditioned medium (CM) (RWPE-1 cells; Compound 1 at 1 μM),total ROS and RNS production induced by conditioned medium (CM) (RWPE-1 cells; Compound 1 at 10 μM)
"C[C@@H](C(=O)NS(C)(=O)=O)c1ccc(OS(=O)(=O)C(F)(F)F)cc1.[Na] [Compd.2, sodium salt of R(−)-2-[(4′-trifluoromethanesulfonyloxy)phenyl]-N-methanesulfonyl propionamide]",potent and selective dual CXCR1/CXCR2 non-competitive allosteric inhibitor,,,,,,,
"C[C@H](C(=O)[O-])c1ccc(Nc2nc(C(F)(F)F)cs2)cc1.[Na+] [Compound 1, sodium salt of (2S)-2-(4-{[4-(trifluoromethyl)-1,3-thiazol-2-yl]amino}phenyl) propanoic acid]",,rapid absorption,partly decreased the mechanical hypersensitivity and allodynia reaching the statistical significance at day 26,"2,8 fold",numerical trend in reducing,numerical trend in reducing,completely reverted the CM effect,more modest effect in comparison to the concentration 1 μM
